Source: US20260144793A1, “METHODS OF TREATING CANCER” (AMGEN INC., priority 2022, published 2026)

Key:
[1] = Concomitant administration of sotorasib with acid reducing agents; type: in vivo; settings: with proton pump inhibitors (e.g., omeprazole) or H2-receptor antagonists (e.g., famotidine)
[2] = test system: phosphorylation of extracellular signal-regulated kinase (ERK); settings: preclinical studies; cited from earlier work
[3] = test system: patients with KRAS G12C-mutated NSCLC, CRC, or other solid tumors; settings: N = 27, all RMC-4630 doses with sotorasib 960 mg QD; TRAEs related to the labelled drug (combination: either drug)
From the text: Note that D1D4 indicates administration of Day 1 and Day 4 of each 7 days.
Dose exploration will begin with treating 3-4 subjects at Dose Level 1. The study dose-limiting toxicity (DLT) period is 21 days. Once all subjects enrolled at a certain dose level and schedule are DLT evaluable, a Dose Level Review Team (DLRT) meeting will be convened. For any dose level (including Dose Level 1), and depending on observed safety data, the following may occur: 1) dose escalation to the next highest dose level or 2) additional enrollment to the current dose level or 3) dose de-escalation to the next lowest dose level. Rules for dose-escalation/de-escalation are derived using a modified Toxicity Probability Interval-2 (mTPI-2) model (Guo et al, 2017) with a target toxicity probability of 0.30 (Table 2)
The grading of adverse events will be based on the guidelines provided in the CTCAE version 5.0. […] A subject without a DLT will not be DLT evaluable if the date of decision to end both investigational products is before the completion of the DLT window.
The adverse event grading scale to be used for this study will be the CTCAE v5.0. The investigator is responsible for ensuring that all serious adverse events observed by the investigator or reported by the subject that occur after the signing of the informed consent through the safety follow-up visit or 30 days after last day of dosing interval of investigational product(s)/protocol-required therapies, whichever is later, are reported using the Events CRF. The criteria for grade 4 in the CTCAE grading scale differs from the regulatory criteria for serious adverse events. If adverse events correspond to a grade 4 CTCAE toxicity grading scale criteria (e.g., laboratory abnormality reported as grade 4 without manifestation of life-threatening status), it will be left to the investigator's judgment to also report these abnormalities as serious adverse events. For any adverse event that applies to this situation, comprehensive documentation of the event's severity must be recorded in the subject medical records. If the investigator becomes aware of serious adverse events suspected to be related to investigational products after the protocol-required reporting period is complete, then these serious adverse events will be reported within 24 hours following the investigator's awareness of the event using the Events CRF. Since a study endpoint is overall survival, the investigator will also need to collect/report fatal serious adverse events (regardless of causality) within 24 hours following investigator's awareness of the event. […] However, if the investigator becomes aware of serious adverse events suspected to be related to investigational products, then these serious adverse events will be reported within 24 hours following the investigator's awareness of the event. Serious adverse events reported outside of the protocol-required reporting period will be captured within the safety database as clinical trial cases and handled accordingly based on relationship to investigational product. If further safety related data is needed to fulfill any regulatory reporting requirements for a reportable event, then additional information may need to be collected from the subject's records after the subject ends the study.
The primary endpoint was safety/tolerability. Secondary endpoints included objective response rate per RECIST 1.1 and pharmacokinetics.

[4] = Phase 1b study of sotorasib in combination with RMC-4630: pharmacokinetic analysis; type: in vivo, human; settings: sotorasib 960 mg QD + RMC-4630 100, 140 or 200 mg; compared with monotherapy studies
From the text: The primary endpoint was safety/tolerability.

C=CC(=O)N1CCN(c2nc(=O)n(-c3c(C)ccnc3C(C)C)c3nc(-c4c(O)cccc4F)c(F)cc23)[C@@H](C)C1 [Sotorasib, 6-fluoro-7-(2-fluoro-6-hydroxyphenyl)-(1M)-1-[4-methyl-2-(propan-2-yl)pyridin-3-yl]-4-[(2S)-2-methyl-4-(prop-2-enoyl)piperazin-1-yl]pyrido[2,3-d]pyrimidin-2 (1H)-one]
Sotorasib concentrations on concomitant administration [1]: decreased sotorasib concentrations
Inhibition of ERK phosphorylation [2]: inhibited nearly all detectable phosphorylation
AST increased, All Grades, % [3]: 4%
AST increased, Grade 3, % [3]: 4%
Ascites, All Grades, % [3]: 4%
Ascites, Grade 3, % [3]: 4%
Colitis, All Grades, % [3]: 4%
Colitis, Grade 3, % [3]: 4%
Diarrhea, All Grades, % [3]: 26%
Diarrhea, Grade 3, % [3]: 7%
Dry mouth, All Grades, % [3]: 11%
Dyspnea, All Grades, % [3]: 4%
Dyspnea, Grade 3, % [3]: 4%
Edema (general, peripheral, periorbital, facial), All Grades, % [3]: 26%
Fatigue, All Grades, % [3]: 11%
Total TRAE, All Grades, % [3]: 56%
Total TRAE, Grade 3, % [3]: 22%
Average exposure in the combination [4]: consistent with distributions observed in monotherapy studies
